Columns and labels:
[1] = target: GDP-bound HRAS wild-type protein (Homo sapiens, UniProt P01112); assay: Binding to HRAS by surface plasmon resonance (SPR), Single Cycle Kinetics; details: KD ratio HRAS/KRAS, SPR, GDP-bound wild-type proteins
[2] = target: GDP-bound NRAS wild-type protein (Homo sapiens, UniProt P01111); assay: Binding to NRAS by surface plasmon resonance (SPR), Single Cycle Kinetics; details: KD ratio NRAS/KRAS, SPR, GDP-bound wild-type proteins
Sequence of GDP-bound NRAS wild-type protein (P01111 whole entry): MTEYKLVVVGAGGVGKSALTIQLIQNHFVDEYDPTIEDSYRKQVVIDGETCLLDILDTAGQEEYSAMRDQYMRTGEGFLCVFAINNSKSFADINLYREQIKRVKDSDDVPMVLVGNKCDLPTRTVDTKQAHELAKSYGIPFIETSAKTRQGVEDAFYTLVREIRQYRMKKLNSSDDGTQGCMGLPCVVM

Sequence of GDP-bound HRAS wild-type protein (P01112 whole entry): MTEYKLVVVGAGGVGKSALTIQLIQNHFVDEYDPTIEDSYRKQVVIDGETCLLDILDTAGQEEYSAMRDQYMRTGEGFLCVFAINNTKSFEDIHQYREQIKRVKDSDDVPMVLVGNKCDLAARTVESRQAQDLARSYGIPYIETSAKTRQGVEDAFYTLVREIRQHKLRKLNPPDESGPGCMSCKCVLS

Compound: CCC[C@H]1C(=O)N[C@@H]([C@@H](C)CC)C(=O)N(C2CC2)CC(=O)N(C)[C@H]2C/C=C\CCN(C2=O)[C@@H](Cc2ccc(C(F)(F)F)cc2)C(=O)N(C)CC(=O)N[C@@H](CCc2cc(F)c(C(F)(F)F)c(F)c2)C(=O)N2C[C@H](OCC)C[C@H]2C(=O)N(C)C2(CCC2)C(=O)N(C)[C@@H](C2CCCC2)C(=O)N(C)[C@H](C(=O)N2CCCCC2)CC(=O)N1C [PP3110]
- HRAS/KRAS (ratio of KD value with respect to GDP-bound HRAS wild-type protein to KD value with respect to KRAS) [1]: A (a compound having 10 or more and less than 20 is denoted as A)
- NRAS/KRAS (ratio of KD value with respect to GDP-bound NRAS wild-type protein to KD value with respect to KRAS) [2]: A (a compound having 10 or more and less than 20 is denoted as A)

Compound: CCC[C@H]1C(=O)N[C@@H]([C@@H](C)CC)C(=O)N(C2CC2)CC(=O)N(C)[C@H]2C/C=C\CCN(C2=O)[C@@H](Cc2ccc(C(F)(F)F)cc2)C(=O)N(C)CC(=O)N[C@@H](CCc2cc(F)c(C(F)(F)F)c(F)c2)C(=O)N2C[C@H](OCC)C[C@H]2C(=O)N(C)C2(CCC2)C(=O)N(C)[C@@H](C2CCCC2)C(=O)N(C)[C@H](C(=O)N2CCCC2)CC(=O)N1C [PP3112]
- HRAS/KRAS (ratio of KD value with respect to GDP-bound HRAS wild-type protein to KD value with respect to KRAS) [1]: B (a compound having 3 or more and less than 10 is denoted as B)
- NRAS/KRAS (ratio of KD value with respect to GDP-bound NRAS wild-type protein to KD value with respect to KRAS) [2]: A (a compound having 10 or more and less than 20 is denoted as A)

Compound: CCC[C@H]1C(=O)N[C@@H]([C@@H](C)CC)C(=O)N(C2CC2)CC(=O)N(C)[C@H]2C/C=C\CCN(C2=O)[C@@H](Cc2ccc(C)cc2)C(=O)N(C)CC(=O)N[C@@H](CCc2cc(F)c(C(F)(F)F)c(F)c2)C(=O)N2C[C@H](OCC)C[C@H]2C(=O)N(C)C2(CCC2)C(=O)N(C)[C@@H](C2CCCC2)C(=O)N(C)[C@H](C(=O)N2CCCC2)CC(=O)N1C [PP3113, (2S,8S,12R,14S,20S,23S,27S,30S,36S,38Z)-20-cyclopentyl-32-cyclopropyl-8-[2-[3,5-difluoro-4-(trifluoromethyl)phenyl]ethyl]-12-ethoxy-4,16,19,22,26,35-hexamethyl-30-[(1S)-1-methylpropyl]-27-propyl-2-(p-tolylmethyl)-23-(pyrrolidine-1-carbonyl)spiro[1,4,7,10,16,19,22,26,29,32,35-undecazatricyclo[34.5.1.0^10,14]dotetracont-38-ene-17,1′-cyclobutane]-3,6,9,15,18,21,25,28,31,34,42-undecone]
- HRAS/KRAS (ratio of KD value with respect to GDP-bound HRAS wild-type protein to KD value with respect to KRAS) [1]: A (a compound having 10 or more and less than 20 is denoted as A)
- NRAS/KRAS (ratio of KD value with respect to GDP-bound NRAS wild-type protein to KD value with respect to KRAS) [2]: A (a compound having 10 or more and less than 20 is denoted as A)

Compound: CCC[C@H]1C(=O)N[C@@H]([C@@H](C)CC)C(=O)N2CCC[C@H]2C(=O)N(C)[C@H]2C/C=C\CCN(C2=O)[C@@H](Cc2ccc(C(F)(F)F)cc2)C(=O)N(C)CC(=O)N[C@@H](CCc2cc(F)c(C(F)(F)F)c(F)c2)C(=O)N2C[C@H](OCC)C[C@H]2C(=O)N(C)C2(CCC2)C(=O)N(C)[C@@H](C2CCCC2)C(=O)N(C)[C@H](C(=O)N2CCCCC2)CC(=O)N1C [PP3114]
- HRAS/KRAS (ratio of KD value with respect to GDP-bound HRAS wild-type protein to KD value with respect to KRAS) [1]: A (a compound having 10 or more and less than 20 is denoted as A)
- NRAS/KRAS (ratio of KD value with respect to GDP-bound NRAS wild-type protein to KD value with respect to KRAS) [2]: AA (a compound having 20 or more is denoted as AA)

Compound: CCC[C@H]1C(=O)N[C@@H]([C@@H](C)CC)C(=O)N2CCC[C@H]2C(=O)N(C)[C@H]2C/C=C\CCN(C2=O)[C@@H](Cc2ccc(C)cc2)C(=O)N(C)CC(=O)N[C@@H](CCc2cc(F)c(C(F)(F)F)c(F)c2)C(=O)N2C[C@H](OCC)C[C@H]2C(=O)N(C)C2(CCC2)C(=O)N(C)[C@@H](C2CCCC2)C(=O)N(C)[C@H](C(=O)N2CCCCC2)CC(=O)N1C [PP3115, (1S,4S,10S,13S,17S,20S,26S,28R,32S,38S,42Z)-20-cyclopentyl-32-[2-[3,5-difluoro-4-(trifluoromethyl)phenyl]ethyl]-28-ethoxy-2,14,18,21,24,36-hexamethyl-10-[(1S)-1-methylpropyl]-17-(piperidine-1-carbonyl)-13-propyl-38-(p-tolylmethyl)spiro[2,8,11,14,18,21,24,30,33,36,39-undecazatetracyclo[37.5.1.0^4,8.0^26,30]pentatetracont-42-ene-23,1′-cyclobutane]-3,9,12,15,19,22,25,31,34,37,45-undecone]
- HRAS/KRAS (ratio of KD value with respect to GDP-bound HRAS wild-type protein to KD value with respect to KRAS) [1]: B (a compound having 3 or more and less than 10 is denoted as B)
- NRAS/KRAS (ratio of KD value with respect to GDP-bound NRAS wild-type protein to KD value with respect to KRAS) [2]: A (a compound having 10 or more and less than 20 is denoted as A)

Compound: CCC[C@H]1C(=O)N[C@@H]([C@@H](C)CC)C(=O)N2CCC[C@H]2C(=O)N(C)[C@H]2C/C=C\CCN(C2=O)[C@@H](Cc2ccc(C(F)(F)F)cc2)C(=O)N(C)CC(=O)N[C@@H](CCc2cc(F)c(C(F)(F)F)c(F)c2)C(=O)N2C[C@H](OCC)C[C@H]2C(=O)N(C)C2(CCC2)C(=O)N(C)[C@@H](C2CCCC2)C(=O)N(C)[C@H](C(=O)N2CCCC2)CC(=O)N1C [PP3116]
- HRAS/KRAS (ratio of KD value with respect to GDP-bound HRAS wild-type protein to KD value with respect to KRAS) [1]: A (a compound having 10 or more and less than 20 is denoted as A)
- NRAS/KRAS (ratio of KD value with respect to GDP-bound NRAS wild-type protein to KD value with respect to KRAS) [2]: A (a compound having 10 or more and less than 20 is denoted as A)

Compound: CCC[C@H]1C(=O)N[C@@H]([C@@H](C)CC)C(=O)N2CCC[C@H]2C(=O)N(C)[C@H]2C/C=C\CCN(C2=O)[C@@H](Cc2ccc(C)cc2)C(=O)N(C)CC(=O)N[C@@H](CCc2cc(F)c(C(F)(F)F)c(F)c2)C(=O)N2C[C@H](OCC)C[C@H]2C(=O)N(C)C2(CCC2)C(=O)N(C)[C@@H](C2CCCC2)C(=O)N(C)[C@H](C(=O)N2CCCC2)CC(=O)N1C [PP3117, (1S,4S,10S,13S,17S,20S,26S,28R,32S,38S,42Z)-20-cyclopentyl-32-[2-[3,5-difluoro-4-(trifluoromethyl)phenyl]ethyl]-28-ethoxy-2,14,18,21,24,36-hexamethyl-10-[(1S)-1-methylpropyl]-13-propyl-38-(p-tolylmethyl)-17-(pyrrolidine-1-carbonyl)spiro[2,8,11,14,18,21,24,30,33,36,39-undecazatetracyclo[37.5.1.0^4,8.0^26,30]pentatetracont-42-ene-23,1′-cyclobutane]-3,9,12,15,19,22,25,31,34,37,45-undecone]
- HRAS/KRAS (ratio of KD value with respect to GDP-bound HRAS wild-type protein to KD value with respect to KRAS) [1]: A (a compound having 10 or more and less than 20 is denoted as A)
- NRAS/KRAS (ratio of KD value with respect to GDP-bound NRAS wild-type protein to KD value with respect to KRAS) [2]: A (a compound having 10 or more and less than 20 is denoted as A)

Compound: CCC[C@H]1C(=O)N[C@@H]([C@@H](C)CC)C(=O)N(C)CC(=O)N(C)[C@H]2C/C=C\CCN(C2=O)[C@@H](Cc2ccc(C(F)(F)F)cc2)C(=O)N(C)CC(=O)N[C@@H](CCc2cc(F)c(C(F)(F)F)c(F)c2)C(=O)N2C[C@H](OCC)C[C@H]2C(=O)N(C)C2(CCC2)C(=O)N(C)[C@@H](C2CCCC2)C(=O)N(C)[C@H](C(=O)N2CCCCC2)CC(=O)N1C [PP3118, (2S,8S,12R,14S,20S,23S,27S,30S,36S,38Z)-20-cyclopentyl-8-[2-[3,5-difluoro-4-(trifluoromethyl)phenyl]ethyl]-12-ethoxy-4,16,19,22,26,32,35-heptamethyl-30-[(1S)-1-methylpropyl]-23-(piperidine-1-carbonyl)-27-propyl-2-[[4-(trifluoromethyl)phenyl]methyl]spiro[1,4,7,10,16,19,22,26,29,32,35-undecazatricyclo[34.5.1.0^10,14]dotetracont-38-ene-17,1′-cyclobutane]-3,6,9,15,18,21,25,28,31,34,42-undecone]
- HRAS/KRAS (ratio of KD value with respect to GDP-bound HRAS wild-type protein to KD value with respect to KRAS) [1]: B (a compound having 3 or more and less than 10 is denoted as B)
- NRAS/KRAS (ratio of KD value with respect to GDP-bound NRAS wild-type protein to KD value with respect to KRAS) [2]: A (a compound having 10 or more and less than 20 is denoted as A)

Compound: CCC[C@H]1C(=O)N[C@@H]([C@@H](C)CC)C(=O)N(C)CC(=O)N(C)[C@H]2C/C=C\CCN(C2=O)[C@@H](Cc2ccc(C)cc2)C(=O)N(C)CC(=O)N[C@@H](CCc2cc(F)c(C(F)(F)F)c(F)c2)C(=O)N2C[C@H](OCC)C[C@H]2C(=O)N(C)C2(CCC2)C(=O)N(C)[C@@H](C2CCCC2)C(=O)N(C)[C@H](C(=O)N2CCCCC2)CC(=O)N1C [PP3119, (2S,8S,12R,14S,20S,23S,27S,30S,36S,38Z)-20-cyclopentyl-8-[2-[3,5-difluoro-4-(trifluoromethyl)phenyl]ethyl]-12-ethoxy-4,16,19,22,26,32,35-heptamethyl-30-[(1S)-1-methylpropyl]-23-(piperidine-1-carbonyl)-27-propyl-2-(p-tolylmethyl)spiro[1,4,7,10,16,19,22,26,29,32,35-undecazatricyclo[34.5.1.0^10,14]dotetracont-38-ene-17,1′-cyclobutane]-3,6,9,15,18,21,25,28,31,34,42-undecone]
- HRAS/KRAS (ratio of KD value with respect to GDP-bound HRAS wild-type protein to KD value with respect to KRAS) [1]: A (a compound having 10 or more and less than 20 is denoted as A)
- NRAS/KRAS (ratio of KD value with respect to GDP-bound NRAS wild-type protein to KD value with respect to KRAS) [2]: A (a compound having 10 or more and less than 20 is denoted as A)
